# Columns and labels:
# [1] = Fluorescence spectra of coelenteramide analogue alone (absence of apoaequorin); assay type: physicochemical; conditions: analogue alone 8 μg/ml
# Protocol: (§1) The fluorescence spectra were determined as follows. For coelenteramide analogue alone, the fluorescence was measured according to the procedures for semi-synthetic gFP and semi-synthetic BFP described in EXAMPLES 11 and 12, except for in the absence of apoaequorin, using 1 ml of 50 mM Tris-HCl (pH 7.6) containing 10 mM EDTA and 1 mM DTT or 1 ml of 50 mM Tris-HCl (pH 7.6) containing 10 mM CaCl2 and 1 mM DTT, in the final concentration of coelenteramide analogue adjusted to 8 μg/ml. The fluorescence spectra were measured at 25° C. in a quartz cell (10 mm light path length) using a Jasco FP-6500 spectrofluorometer (excitation wavelength: 337 nm, emission/excitation bandwidth: 3 nm; response: 0.5 sec, scan speed, 1000 nm/min).
# apoaequorin [2] = biological target: T1, apoaequorin (Aequorea victoria, UniProt P07164); test: Luciferase activity of semi-synthetic BFPs using coelenterazine as substrate; assay type: biochemical; conditions: Imax, 10 mM CaCl2, 10 seconds, BFP from CTMD = 100
# T1 construct: purchased Chisso Corporation
# Protocol: To confirm that semi-synthetic BFPs prepared from coelenteramide analogues and apoaequorin, which are novel fluorescent proteins having luciferase activity, the luminescence reaction was performed in the presence of calcium ions, using coelenterazine as a light emitting substrate. After 5 μl (corresponding to 1 μg protein) of a solution of semi-synthetic BFP prepared in EXAMPLE 12 was added to 100 μl of 50 mM Tris-HC 1 (pH 7.6) containing 10 mM CaCl2, 1 μl of a solution of coelenterazine (1 μg/μl) in ethanol was mixed with the solution to start the luminescence reaction. The luminescence activity was measured for 10 seconds on a luminometer luminescencer-PSN AB2200 (manufactured by Atto Co., Ltd.). The luminescence activity was determined by repeating the measurement of luminescence activity described above twice and expressed in terms of the maximum luminescence intensity (Imax) of luminescence activity.
# apoaequorin [3] = biological target: T1, apoaequorin; test: Fluorescence spectra of semi-synthetic BFP (coelenteramide analogue + apoaequorin, CaCl2); assay type: physicochemical; conditions: 10 mM CaCl2 buffer, excitation 337 nm
# Protocol: Semi-synthetic gFP was prepared from recombinant apoaequorin and coelenteramide analogues as follows. In 1 ml of 50 mM Tris-HC 1 (pH 7.6) containing 10 mM CaCl2 and 1 mM DTT, apoaequorin (0.2 mg) was mixed with 8 μl of a coelenteramide analogue (1 μg/μl in anhydrous methanol). The mixture was allowed to stand at 4° C. for 16 hours to prepare semi-synthetic BFP-like protein (hereinafter sometimes simply referred to as “semi-synthetic BFP”).
# as §1
# apoaequorin [4] = biological target: T1, apoaequorin; test: Fluorescence spectra of semi-synthetic gFP (coelenteramide analogue + apoaequorin, EDTA); assay type: physicochemical; conditions: 10 mM EDTA buffer, excitation 337 nm
# Protocol: Semi-synthetic gFP was prepared from recombinant apoaequorin and coelenteramide analogues as follows. In 1 ml of 50 mM Tris-HC 1 (pH 7.6) containing 10 mM EDTA and 1 mM DTT, apoaequorin (0.2 mg) was mixed with 8 μl of a coelenteramide analogue (1 μg/μl in anhydrous methanol). The mixture was allowed to stand 4° C. for 16 hours to prepare semi-synthetic gFP-like protein (hereinafter sometimes simply referred to as “semi-synthetic gFP”).
# as §1
# [5] = 10 mM CaCl2 buffer pH 7.6, excitation 337 nm
# [6] = 10 mM EDTA buffer pH 7.6, excitation 337 nm
# T1 sequence (P07164 other isoform, or with tags, fused parts or gaps with the stated changes): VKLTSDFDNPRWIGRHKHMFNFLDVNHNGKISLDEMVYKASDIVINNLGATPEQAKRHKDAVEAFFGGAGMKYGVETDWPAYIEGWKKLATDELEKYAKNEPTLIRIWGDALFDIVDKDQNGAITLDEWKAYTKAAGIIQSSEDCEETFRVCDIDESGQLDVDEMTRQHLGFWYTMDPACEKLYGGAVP
compound,measurement,setting,value
O=C(Cc1ccc(O)cc1)Nc1ncc(-c2ccc(O)cc2)nc1Cc1ccccc1 [Coelenteramide],Coelenteramide (Buffer containing CaCl2) Fluorescence intensity (rlu),[1]; [5],5.9 rlu
same,Coelenteramide (Buffer containing CaCl2) Maximum fluorescence wavelength λmax (nm),[1]; [5],457.0 nm
same,Coelenteramide (EDTA-containing buffer) Fluorescence intensity (rlu),[1]; [6],4.6 rlu
same,Coelenteramide (EDTA-containing buffer) Maximum fluorescence wavelength λmax (nm),[1]; [6],458.0 nm
same,Luciferase activity of semi-synthetic BFP (%),apoaequorin [2],100.0%
same,Fluorescence intensity,apoaequorin [3],151.2 rlu
same,Semi-synthetic BFP (Buffer containing CaCl2) Maximum fluorescence wavelength λmax (nm),apoaequorin [3],468.5 nm
same,Semi-synthetic gFP (EDTA-containing buffer) Fluorescence intensity (rlu),apoaequorin [4],165.2 rlu
same,Semi-synthetic gFP (EDTA-containing buffer) Maximum fluorescence wavelength λmax (nm),apoaequorin [4],482.5 nm
